Earlier results, collected in patent US12343434B2, “Hybrid membrane camouflaged nanomedicine loaded with oxidative phosphorylation inhibitor and preparing method thereof” (Henan University, priority 2021, dated 2025).

Conditions: background statement

CCc1n(CC(=O)O[C@@H]2C[C@H](C)CC[C@H]2C(C)C)c2ccccc2[n+]1C.[Cl-] [Gboxin, 1-carboxymethyl-2-ethyl-3-methyl-1H-benzimidazole-3-ammonium L-menthol ester chloride]
blood half-life: extremely short
